Assay results as given in PubChem BioAssay AID2060357 (Molecular Pharmacology Branch, DTP, NCI, 2025).
Several values for one entry are separate records, joined by “and”; a condition that tells them apart may be missing. Equal entries are not always repeated.

System: 292921-168-R-J2-PDC spheroids with HUVEC/MSC, viability
Experiment: Anticancer human tumor 292921-168-R-J2-PDC patient-derived pancreatic carcinoma cell line growth inhibition [TAK]
Settings: for viability, T/C: stronger effect = lower value
Source text: Combinatorial screen of targeted agents with TAK-243 and ipatasertib in multi-cell type tumor spheroids
A high-throughput screen of multi-cell type tumor spheroids was designed to identify active combinations of targeted small molecules and TAK-243 or ipatasertib. Complex spheroids include a stromal component modeled by human endothelial cells (HUVEC) and fibroblasts modeled by human mesenchymal stem cells (MSCs). The concentration ranges selected for each drug and investigational agent were based upon clinically achievable concentrations if the clinical Cmax of the agent was known.
Compounds. The drugs and investigational agents: TAK-243 (785004), ipatasertib (767898), everolimus (733504), selumetinib (741078), bortezomib (756655), trametinib (758246), ixazomib (758254), vemurafenib (761431), dabrafenib (764134), sapanisertib (764658), alpelisib (765974), and copanlisib (816437), were obtained from the National Cancer Institute (NCI) Developmental Therapeutics Program Chemical Repository. The FDA-approved anticancer drug set is available from the NCI Developmental Therapeutics Program. […] The stock solutions were prepared in dimethyl sulfoxide (DMSO, Sigma-Aldrich, St. Louis, MO, cat. D2650) at 800-fold the tested concentration and stored at -70 degrees C prior to their use. All drugs and investigational agents were tested over a range starting from a high concentration at or near the clinical Cmax and decreasing in half-log increments. If the clinical Cmax for an agent had not been determined, the highest concentration tested was 10 microM.
NCI60 Cell Culture. NCI60 cell lines were obtained from the NCI Developmental Therapeutics Program Tumor Repository. For each lot of cells, the Repository performed Applied Biosystems AmpFLSTR Identifiler testing with PCR amplification to confirm consistency with the published Identifier STR profile for each cell line. Cells were kept in continuous culture for no more than 20 passages. The optimal seeding densities for each of the cell lines at each time point assessed were determined prior to performing the concentration response studies. Briefly, the NCI60 human tumor lines were grown as monolayers in RPMI 1640 medium supplemented with 10% FBS and 2 mmol/L L-glutamine.
An additional 2 lines were from the NCI60 cell line panel including melanomas, MALME-3M and SK-MEL-2. Pooled donor human umbilical vein endothelial cells (HUVEC, Lonza, cat. CC-2519) and human mesenchymal stem cells (hMSC, Lonza, cat. PT-2501) were purchased from Lonza (Walkersville, MD).
PDMR cell lines were grown in complete medium (DC medium): Dulbecco's modified Eagle's medium (DMEM)/F12 supplemented with 5% fetal bovine serum (FBS), 2 mM L-glutamine, 100 U/mL penicillin and 100 µg/ml streptomycin, 0.4 µg/ml hydrocortisone, 10 ng/ml epidermal growth factor (EGF) recombinant human protein, 24 µg/mL adenine, and 0.1 mg/mL primocin. During culture from frozen stock vials, PDMR cells were cultured in the same medium containing 10 µM Y-27632 (see Table 3). The PDCs were cultured in complete DMEM/F12 media without 10 microM Y-27632 dihydrochloride for at least two passages prior to the screen. The pooled donor HUVEC and hMSC were cultured in endothelial cell growth medium 2 (PromoCell, Heidelberg, Germany, cat. C-22011) and mesenchymal stem cell growth medium 2 (PromoCell, cat. C-28009), respectively. For all experiments, HUVEC and hMSC were used at passages </=5.
For the pre-screen, cell seeding densities were determined from a titration spanning the range from 5,000 to 313 cells per well. The mct-spheroids including 60% malignant cells, 25% HUVEC and 15% MSC dispensed as a mixture into U-bottom Ultra-Low Attachment 384-well plates (Corning, NY)
High-throughput Drug Combination Screening.
Prior to their inoculation into 384-well plates, malignant cells, HUVEC, and hMSC were removed from T flasks using TrypLE express (Thermo Fisher Scientific, cat. 12605036) and harvested by centrifugation for 5 min at 233 x g. […]

[1] = curve of first compound, second compound 0.3 µM
[2] = curve of first compound, second compound 0.949 µM
[3] = curve of first compound, second compound 3 µM
[4] = curve of first compound, second compound 9.49 µM
[5] = curve of first compound, second compound 30 µM
[6] = second compound 0.3 µM, first compound 0.0316 µM
[7] = second compound 0.3 µM, first compound 0.1 µM
[8] = second compound 0.3 µM, first compound 0.316 µM
[9] = second compound 0.3 µM, first compound 1 µM
[10] = second compound 0.3 µM, first compound 3.16 µM
[11] = second compound 0.3 µM, first compound 10 µM
[12] = second compound 0.949 µM, first compound 0.0316 µM
[13] = second compound 0.949 µM, first compound 0.1 µM
[14] = second compound 0.949 µM, first compound 0.316 µM
[15] = second compound 0.949 µM, first compound 1 µM
[16] = second compound 0.949 µM, first compound 3.16 µM
[17] = second compound 0.949 µM, first compound 10 µM
[18] = second compound 3 µM, first compound 0.0316 µM
[19] = second compound 3 µM, first compound 0.1 µM
[20] = second compound 3 µM, first compound 0.316 µM
[21] = second compound 3 µM, first compound 1 µM
[22] = second compound 3 µM, first compound 3.16 µM
[23] = second compound 3 µM, first compound 10 µM
[24] = second compound 9.49 µM, first compound 0.0316 µM
[25] = second compound 9.49 µM, first compound 0.1 µM
[26] = second compound 9.49 µM, first compound 0.316 µM
[27] = second compound 9.49 µM, first compound 1 µM
[28] = second compound 9.49 µM, first compound 3.16 µM
[29] = second compound 9.49 µM, first compound 10 µM
[30] = second compound 30 µM, first compound 0.0316 µM
[31] = second compound 30 µM, first compound 0.1 µM
[32] = second compound 30 µM, first compound 0.316 µM
[33] = second compound 30 µM, first compound 1 µM
[34] = second compound 30 µM, first compound 3.16 µM
[35] = second compound 30 µM, first compound 10 µM
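Note: spheroids exposed to drugs for seven days before readout.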

SMILES	IC50 [1]	IC50 [2]	IC50 [3]	IC50 [4]	IC50 [5]	viability, T/C [6]	viability, T/C [7]	viability, T/C [8]	viability, T/C [9]	viability, T/C [10]	viability, T/C [11]	viability, T/C [12]	viability, T/C [13]	viability, T/C [14]	viability, T/C [15]	viability, T/C [16]	viability, T/C [17]	viability, T/C [18]	viability, T/C [19]	viability, T/C [20]	other results
CC(C)(C)c1nc(-c2cccc(NS(=O)(=O)c3c(F)cccc3F)c2F)c(-c2ccnc(N)n2)s1 + CC(C)NCC(C(=O)N1CCN(c2ncnc3c2C(C)CC3O)CC1)c1ccc(Cl)cc1	2.27 µM	1.8 µM	1.25 µM	0.682 µM	< 0.0316 µM	94.8%	94.7%	88.7%	74.2%	40.1%	20.5%	85.2%	92%	80.5%	66.9%	34.2%	17.9%	83.4%	85.9%	77.4%	viability, T/C [21]: 55.2%; viability, T/C [22]: 27.5%; viability, T/C [23]: 15.8%; viability, T/C [24]: 72.5%; viability, T/C [25]: 70.8%; viability, T/C [26]: 64.7%; viability, T/C [27]: 42.5%; viability, T/C [28]: 22.7%; viability, T/C [29]: 15.2%; viability, T/C [30]: 46.5%; viability, T/C [31]: 49.8%; viability, T/C [32]: 44.1%; viability, T/C [33]: 35.6%; viability, T/C [34]: 19.8%; viability, T/C [35]: 14.1%
Cc1nc(NC(=O)N2CCCC2C(N)=O)sc1-c1ccnc(C(C)(C)C(F)(F)F)c1 (configuration not stated) + CC(C)NCC(C(=O)N1CCN(c2ncnc3c2C(C)CC3O)CC1)c1ccc(Cl)cc1	0.295 µM	0.185 µM	0.184 µM	0.0708 µM	< 0.0316 µM	75.5%	67.2%	47.2%	34.2%	26.2%	20%	78.5%	58.4%	42.8%	30.5%	24.1%	19.6%	68.5%	61.7%	39.3%	viability, T/C [21]: 27.1%; viability, T/C [22]: 23.4%; viability, T/C [23]: 15.3%; viability, T/C [24]: 59.8%; viability, T/C [25]: 46.8%; viability, T/C [26]: 27.8%; viability, T/C [27]: 21.1%; viability, T/C [28]: 17.8%; viability, T/C [29]: 12.7%; viability, T/C [30]: 41.1%; viability, T/C [31]: 33.2%; viability, T/C [32]: 23.9%; viability, T/C [33]: 16.4%; viability, T/C [34]: 13.4%; viability, T/C [35]: 9.1%
CC(C)CC(NC(=O)C(Cc1ccccc1)NC(=O)c1cnccn1)B(O)O (configuration not stated)																					viability, T/C (compound 31.6 pM): 99.4% and 103%; viability, T/C (compound 0.0001 µM): 102%; viability, T/C (compound 0.000316 µM): 104% and 107%; viability, T/C (compound 0.001 µM): 96.7% and 104%; viability, T/C (compound 0.00316 µM): 88.3% and 74.9%; viability, T/C (compound 0.01 µM): 7.89% and 7.64%; IC50 (curve of compound): 0.00546 µM and 0.00485 µM
